Experimental data published in the supplement of paper PMC10307832.

Tests used:
Experiment in all cases: relative viability (nuclei count vs DMSO), 5 days (fraction); higher = more cells survive
KN-93 + Crizotinib = compound: CN(C/C=C/C1=CC=C(C=C1)Cl)CC2=CC=CC=C2N(CCO)S(=O)(=O)C3=CC=C(C=C3)OC [KN-93] + C[C@@H](Oc1cc(-c2cnn(C3CCNCC3)c2)cnc1N)c1c(Cl)ccc(F)c1Cl [Crizotinib] (partner 1 µM)
In short: (§1)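 Lung cancer cell lines in 1536-well plates got either a single drug or a fixed anchor-drug dose together with five library-drug doses (not always all listed) in √10 steps, by pin tool, on the day after seeding. Nuclei were counted after 5 days, and relative viability is the treated-to-vehicle ratio of nuclei counts. Values are medians of duplicate plates.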

KN-93 + Olaparib = compound: CN(C/C=C/C1=CC=C(C=C1)Cl)CC2=CC=CC=C2N(CCO)S(=O)(=O)C3=CC=C(C=C3)OC [KN-93] + O=C(c1cc(Cc2n[nH]c(=O)c3ccccc23)ccc1F)N1CCN(C(=O)C2CC2)CC1 [Olaparib] (partner 8 µM)
In short: as §1

KN-93 + Pemetrexed = compound: CN(C/C=C/C1=CC=C(C=C1)Cl)CC2=CC=CC=C2N(CCO)S(=O)(=O)C3=CC=C(C=C3)OC [KN-93] + Nc1nc2[nH]cc(CCc3ccc(C(=O)N[C@@H](CCC(=O)O)C(=O)O)cc3)c2c(=O)[nH]1 [Pemetrexed] (partner 0.2 µM)
In short: as §1

KN-93 + Trametinib = compound: CN(C/C=C/C1=CC=C(C=C1)Cl)CC2=CC=CC=C2N(CCO)S(=O)(=O)C3=CC=C(C=C3)OC [KN-93] + CC(=O)Nc1cccc(-n2c(=O)n(C3CC3)c(=O)c3c(Nc4ccc(I)cc4F)n(C)c(=O)c(C)c32)c1 [Trametinib] (partner 0.02 µM)
In short: as §1

KN-93 + Linsitinib = compound: CN(C/C=C/C1=CC=C(C=C1)Cl)CC2=CC=CC=C2N(CCO)S(=O)(=O)C3=CC=C(C=C3)OC [KN-93] + C[C@]1(O)C[C@@H](c2nc(-c3ccc4ccc(-c5ccccc5)nc4c3)c3c(N)nccn32)C1 [Linsitinib] (partner 1 µM)
In short: as §1

| Cell Line | relative viability (KN-93 + Crizotinib; first compound 0.08 µM) | relative viability (KN-93 + Crizotinib; first compound 0.253 µM) | relative viability (KN-93 + Crizotinib; first compound 2.53 µM) | relative viability (KN-93 + Crizotinib; first compound 8 µM) | relative viability (KN-93 + Olaparib; first compound 0.08 µM) | relative viability (KN-93 + Olaparib; first compound 0.253 µM) | relative viability (KN-93 + Olaparib; first compound 2.53 µM) | relative viability (KN-93 + Olaparib; first compound 8 µM) | relative viability (KN-93 + Pemetrexed; first compound 0.08 µM) | relative viability (KN-93 + Pemetrexed; first compound 0.253 µM) | relative viability (KN-93 + Pemetrexed; first compound 2.53 µM) | relative viability (KN-93 + Pemetrexed; first compound 8 µM) | relative viability (KN-93 + Trametinib; first compound 0.08 µM) | relative viability (KN-93 + Trametinib; first compound 0.253 µM) | relative viability (KN-93 + Trametinib; first compound 2.53 µM) | relative viability (KN-93 + Trametinib; first compound 8 µM) | relative viability (KN-93 + Linsitinib; first compound 0.08 µM) | relative viability (KN-93 + Linsitinib; first compound 0.253 µM) | relative viability (KN-93 + Linsitinib; first compound 2.53 µM) | relative viability (KN-93 + Linsitinib; first compound 8 µM) |
| --- | --- | --- | --- | --- | --- | --- | --- | --- | --- | --- | --- | --- | --- | --- | --- | --- | --- | --- | --- | --- |
| 201T | 1.01 | 1.05 | 1.01 | 0.973 | 0.847 | 0.857 | 0.904 | 0.706 | 0.327 | 0.315 | 0.32 | 0.323 | 0.714 | 0.754 | 0.711 | 0.599 | 1.04 | 0.968 | 0.995 | 0.837 |
| A-427 | 0.852 | 0.943 | 0.798 | 0.436 | 0.783 | 0.559 | 0.765 | 0.51 | 1.05 | 1.01 | 0.941 | 0.776 | 0.799 | 0.746 | 0.772 | 0.438 | 1.1 | 1.2 | 1.13 | 0.965 |
| ABC-1 | 1.05 | 1.28 | 0.498 | 0.219 | 0.785 | 0.687 | 0.978 | 0.339 | – | – | – | – | – | – | – | – | 0.889 | 0.717 | 0.727 | 0.362 |
| BEN | – | 1.13 | 1.02 | 0.67 | 1.13 | 1.19 | 1.06 | 0.713 | 0.886 | 0.829 | 0.913 | 0.54 | 1.08 | 1.19 | 1.18 | 0.67 | – | 1.31 | 1.03 | 0.786 |
| CAL-12T | 0.623 | 0.834 | 0.531 | 0.339 | 0.772 | 0.777 | 0.788 | 0.641 | 1.08 | 1.25 | 0.93 | 1.01 | 0.345 | 0.35 | 0.289 | 0.28 | 0.926 | 0.766 | 0.694 | 0.729 |
| COR-L23 | 0.697 | 0.764 | 0.673 | 0.455 | 0.298 | 0.338 | 0.357 | 0.327 | 0.196 | 0.205 | 0.204 | 0.2 | 0.554 | 0.625 | 0.722 | 0.395 | 0.683 | 1.07 | 0.887 | 0.577 |
| COR-L 105 | 0.696 | 0.873 | 0.807 | 0.436 | 0.722 | 0.499 | 0.545 | 0.661 | 1.07 | 1.02 | 1.31 | 0.832 | 0.452 | 0.41 | 0.437 | 0.399 | 0.811 | 0.878 | 1.15 | 0.784 |
| ChaGo-K-1 | 1.12 | 1.23 | 1.11 | 0.722 | 0.388 | 0.402 | 0.442 | 0.38 | 0.264 | 0.259 | 0.246 | 0.258 | 0.906 | 1.03 | 0.79 | 0.785 | – | – | – | – |
| EKVX | 0.642 | 0.995 | 0.81 | 0.719 | 0.761 | 0.558 | 0.802 | 0.669 | 0.382 | 0.346 | 0.454 | 0.244 | 0.359 | 0.285 | 0.341 | 0.279 | 0.959 | 0.872 | 1.03 | 0.748 |
| EMC-BAC-2 | 0.773 | 0.792 | 0.772 | 0.573 | 0.498 | 0.441 | 0.507 | 0.431 | 0.452 | 0.484 | 0.497 | 0.437 | 0.912 | 0.826 | 0.945 | 0.714 | 0.821 | 1 | 0.878 | 0.775 |
| EPLC-272H | 1.05 | 1.01 | 1.04 | 0.661 | 0.466 | 0.681 | 0.913 | 0.267 | 0.422 | 0.274 | 0.285 | 0.211 | 0.289 | 0.279 | 0.283 | 0.23 | 1.15 | 1.27 | 1.21 | 0.871 |
| H3255 | 0.995 | 0.952 | 0.48 | 0.623 | 0.519 | 0.621 | 0.523 | 0.485 | 0.558 | 0.54 | 0.544 | 0.484 | 0.643 | 0.59 | 0.671 | 0.417 | 0.802 | 1.09 | 1.08 | 0.584 |
| HARA | 1.04 | 1.51 | 0.946 | 0.51 | 0.524 | 0.584 | 0.718 | 0.336 | 0.292 | 0.29 | 0.282 | 0.247 | 0.632 | 0.549 | 0.434 | 0.461 | 0.84 | 1.11 | 0.923 | 0.527 |
| HCC-15 | 0.664 | 0.961 | 0.795 | 0.682 | 0.658 | 0.731 | 0.719 | 0.522 | 0.218 | 0.209 | 0.21 | 0.215 | 0.359 | 0.367 | 0.348 | 0.306 | 0.85 | 1 | 0.802 | 0.728 |
| HCC-44 | 0.732 | 0.785 | 0.858 | 0.502 | 0.935 | 0.959 | 0.994 | 0.88 | 0.652 | 0.615 | 0.667 | 0.678 | 1.14 | 0.954 | 1.04 | 0.83 | 0.616 | 0.613 | 0.667 | 0.462 |
| HCC-78 | 0.336 | 0.312 | 0.37 | 0.312 | 0.725 | 0.976 | 0.807 | 0.726 | 0.816 | 1.02 | 0.911 | 0.935 | 0.708 | 0.68 | 0.808 | 0.711 | 0.489 | 0.507 | 0.549 | 0.374 |
